Data reported in patent US20240307308A1, “PORPHYRIN NANOVESICLE WITH FATTY ACID CONJUGATE” (priority 2021, published 2024).
Entries after “also recorded” stand apart in the source; their conditions may differ.

How the values were obtained:
KB cells = assay: Intracellular uptake by fluorescence microscopy; type: cell-based; conditions: 1 mM (1000 μM) free EDTA with 5 μM PS
Protocol: Fluorescence microscopy method was firstly used to track particles' intracellular uptake on KB cells that cultured in RPMI-1640 media with 10% FBS. Briefly, 5×10^4 cells/well were seeded in eight-well chamber slides 24 h prior to incubation. Cells were incubated with NPS and PS at porphyrin concentration of 1 μM for 4 h at 37° C., rinsed with PBS for 3 times and then re-culture in fresh media. Olympus FV1000 laser fluorescence scanning microscopy (Olympus, Tokyo, Japan) was conducted to monitor the porphyrin fluorescence change of the cells with time (immediately and at 3 h and 18 h after removing the incubation medium). The fluorescence microscopy method was also used to examine eNPS uptake in KB epithelium cells versus normal fibroblast cells (NFB)

[1] = doses of 1000 mg/kg; cited from earlier work

Compound | Effect of co-incubated free EDTA on PS uptake (KB cells) | Acute toxicity [1]
O=C(O)CN(CCN(CC(=O)O)CC(=O)O)CC(=O)O [free EDTA, Ethylenediaminetetraacetic acid] | negligible enhancement; also recorded: negligible effect | 
pyropheophorbide-lipid [porphyrin-lipid] |  | minimal acute toxicities
